# US11072633B2 (priority 2016, dated 2021)
# Several values for one entry are separate records, joined by “and”; a condition that tells them apart may be missing. Identical values can stand only once. Like-named read-outs stand apart in the source and are kept apart here.
# Columns and labels:
# [1] = system: M. tuberculosis H37Rv; format: cell-based
# [2] = system: RIF-R1 (derived from H37Rv, rpoB mutant S522L); format: cell-based, M. tuberculosis
# [3] = system: FQ-R1 (fluoroquinolone-resistant strain derived from H37Rv, gyrA mutant D94N); format: cell-based, M. tuberculosis
# [4] = system: INH-R1 (derived from H37Rv, katG mutant Y155*); format: cell-based, M. tuberculosis
compound,measurement,setting,value
"COc1nc2ccc(Br)cc2cc1[C@@H](c1ccccc1)[C@@](O)(CCN(C)C)c1cccc2ccccc12 [BDQ, bedaquiline, reference compound]",Frequencies of resistance,[1],5.5 × 10^−9 and 3.4 × 10^−7
CCCN1CC2C(CC[C@@]3(C)C2CC[C@@H]3C(=O)Nc2cc(C(C)(C)C)ccc2C(C)(C)C)[C@@]2(C)CCC(=O)C=C12 (some centres unmarked) [Compound 114],Frequencies of resistance,[1]; 114 5 × MIC with BDQ 5 × MIC,2 × 10^−7
same,Frequencies of resistance,"[1]; 114 5 × MIC, BDQ none",3.6 × 10^−6
same,Frequencies of resistance,[1]; 114 10 × MIC with BDQ 10 × MIC,7.8 × 10^−8
same,Frequencies of resistance,"[1]; 114 10 × MIC, BDQ none",1.1 × 10^−7
"NNC(=O)c1ccncc1 [INH, isoniazid]",MIC RIF-R1,[2],0.20 µM
same,MIC FQ-R1,[3],0.29 µM
same,MIC INH-R1,[4],>200 µM
